Structures are written as SMILES. Where a SMILES comes first, the peptide text is derived from it. Bridges are numbered along the chain shown (N, C = ends). [ ]: non-standard residue; d: D form. R8 = C=CCCCCCC[C@@](C)(N)C(=O)O; S5 = C=CCCC[C@](C)(N)C(=O)O; Nle = CCCC[C@H](N)C(=O)O; Aib = CC(C)(N)C(=O)O

One series can be described thus: Figure 6. Also on record: AUC,all / AUC,inf: concentration or dose not given beside the values. The text has this: Table printed on a drawing sheet, Figure 6
First reader's note: The head SP-2 is printed shifted to the left of its column of values.
For the compound `CCCC[C@H](NC(C)=O)C(=O)N[C@@H](CC(=O)O)C(=O)N[C@H](C(=O)N[C@@H](CC(N)=O)C(=O)N1CCC[C@H]1C(=O)N[C@H](C(=O)N[C@@H](CC(C)C)C(=O)N[C@@H](CC(C)C)C(=O)N[C@@H](Cc1ccccc1)C(=O)N[C@@H](CC(C)C)C(=O)N[C@@H](CCCCN)C(=O)N[C@H](C(=O)N1CCC[C@H]1C(=O)N[C@@H](C)C(=O)N[C@@H](CCC(N)=O)C(N)=O)C(C)C)[C@@H](C)O)C(C)C` [SP-1, Ac-NleDVNPTLLFLKVPAQ-NH2], the “AUC,all” value was 1606 ng·h/mL; the “AUC,inf” value came out at 1616 ng·h/mL; the “Cl” value came to 31.22 mL/min/kg; the “Cmax, obs” value worked out at 7742 ng/mL. The “MRT” value worked out at 0.13 h, the “T1/2” value turned out to be 0.16 h and the “Vss” value came to 0.241 L/kg.
`CCCC[C@H](NC(C)=O)C(=O)N[C@@H](CC(=O)O)C(=O)N[C@H](C(=O)N[C@@H](CC(N)=O)C(=O)NC(C)(C)C(=O)N[C@H](C(=O)N[C@@H](CC(C)C)C(=O)N[C@@H](CC(C)C)C(=O)N[C@@H](Cc1ccccc1)C(=O)N[C@@H](CC(C)C)C(=O)N[C@@H](CCCCN)C(=O)N[C@H](C(=O)NC(C)(C)C(=O)N[C@@H](C)C(=O)N[C@@H](CCC(N)=O)C(N)=O)C(C)C)[C@@H](C)O)C(C)C` [SP-2, Ac-NleDVNAibTLLFLKVAibAQ-NH2] (Ac-[Nle]DVN[Aib]TLLFLKV[Aib]AQ-NH2): the “AUC,all” value is 3360 ng·h/mL; the “AUC,inf” value came to 3385 ng·h/mL; the “Cl” value was found to be 15 mL/min/kg; the “Cmax, obs” value was found to be 8145 ng/mL. The “MRT” value came to 0.41 h, the “T1/2” value stood at 0.33 h and the “Vss” value came to 0.366 L/kg.
Regarding `CCCC[C@H](NC(C)=O)C(=O)N[C@@H](CC(=O)O)C(=O)N[C@H](C(=O)N[C@@H](CC(N)=O)C(=O)NC(C)(C)C(=O)N[C@H](C(=O)N[C@@H](CC(C)C)C(=O)N[C@@H](CC(C)C)C(=O)N[C@@H](Cc1ccccc1)C(=O)N[C@@]1(C)CCCC=CCCC[C@@](C)(C(=O)N[C@@H](CCCNC(=N)N)C(N)=O)NC(=O)[C@H](C)NC(=O)[C@H](C(C)C)NC(=O)[C@H](CCCCN)NC1=O)[C@@H](C)O)C(C)C` [SP-6, Ac-NleDVNAibTLLF$KVA$R-NH2] (Ac-[Nle]DVN[Aib]TLLF[S5]KVA[S5]R-NH2; staple 10-14), the “AUC,all” value was determined as 10894 ng·h/mL; the “AUC,inf” value is 10976 ng·h/mL; the “Cl” value was determined as 4.65 mL/min/kg; the “Cmax, obs” value was 12564 ng/mL. The “MRT” value came to 1.25 h, the “T1/2” value worked out at 1.29 h and the “Vss” value was 0.348 L/kg.
Consider `CCCC[C@H](NC(C)=O)C(=O)N[C@@H](CC(=O)O)C(=O)N[C@H](C(=O)N[C@@H](CC(N)=O)C(=O)NC(C)(C)C(=O)N[C@H](C(=O)N[C@@H](CC(C)C)C(=O)N[C@@]1(C)CCCC=CCCC[C@@](C)(C(=O)N[C@@H](C)C(=O)N[C@@H](C)C(=O)N[C@@H](CCC(N)=O)C(N)=O)NC(=O)[C@H](CCCCN)NC(=O)[C@H](CC(C)C)NC(=O)[C@H](Cc2ccccc2)NC1=O)[C@@H](C)O)C(C)C` [SP-9, Ac-NleDVNAibTL$FLK$AAQ-NH2] (Ac-[Nle]DVN[Aib]TL[S5]FLK[S5]AAQ-NH2; staple 8-12), for which the “AUC,all” value is 8190 ng·h/mL; the “AUC,inf” value was 11950 ng·h/mL; the “Cl” value stood at 5.67 mL/min/kg; the “Cmax, obs” value came out at 9766 ng/mL. Moreover, the “MRT” value stood at 1.41 h, the “T1/2” value is 1.59 h and the “Vss” value is 0.363 L/kg.
With `CCCC[C@H](NC(C)=O)C(=O)N[C@@H](CC(=O)O)C(=O)N[C@H](C(=O)N[C@@H](CC(N)=O)C(=O)N1CCC[C@H]1C(=O)N[C@H](C(=O)N[C@@H](CC(C)C)C(=O)N[C@@]1(C)CCCC=CCCC[C@@](C)(C(=O)N[C@@H](C)C(=O)N[C@@H](C)C(=O)N[C@@H](CCC(N)=O)C(N)=O)NC(=O)[C@H](CCCCN)NC(=O)[C@H](CC(C)C)NC(=O)[C@H](Cc2ccccc2)NC1=O)[C@@H](C)O)C(C)C` [SP-10, Ac-NleDVNPTL$FLK$AAQ-NH2] (Ac-[Nle]DVNPTL[S5]FLK[S5]AAQ-NH2; staple 8-12), the “AUC,all” value amounted to 5770 ng·h/mL; the “AUC,inf” value turned out to be 5800 ng·h/mL; the “Cl” value stood at 8.85 mL/min/kg; the “Cmax, obs” value amounted to 11408 ng/mL. The “MRT” value is 0.55 h, the “T1/2” value was 0.56 h and the “Vss” value turned out to be 0.29 L/kg.
Consider `CCCC[C@H](NC(C)=O)C(=O)N[C@@H](CC(=O)O)C(=O)N[C@H](C(=O)N[C@@H](CC(N)=O)C(=O)N1CCC[C@H]1C(=O)N[C@H](C(=O)N[C@@H](CC(C)C)C(=O)N[C@@H](CC(C)C)C(=O)N[C@@H](Cc1ccccc1)C(=O)N[C@@]1(C)CCCC=CCCC[C@@](C)(C(=O)N[C@@H](CCCNC(=N)N)C(N)=O)NC(=O)[C@H](C)NC(=O)[C@H](C(C)C)NC(=O)[C@H](CCCCN)NC1=O)[C@@H](C)O)C(C)C` [SP-11, Ac-NleDVNPTLLF$KVA$R-NH2] (Ac-[Nle]DVNPTLLF[S5]KVA[S5]R-NH2; staple 10-14), for which the “AUC,all” value came out at 9065 ng·h/mL; the “AUC,inf” value came out at 9100 ng·h/mL; the “Cl” value came out at 5.67 mL/min/kg; the “Cmax, obs” value is on record as 18748 ng/mL. Also, the “MRT” value came out at 0.52 h, the “T1/2” value was 0.54 h and the “Vss” value came to 0.178 L/kg.
Consider `CCCC[C@H](NC(C)=O)C(=O)N[C@@H](CC(=O)O)C(=O)N[C@H](C(=O)N[C@@H](CC(N)=O)C(=O)NC(C)(C)C(=O)N[C@H](C(=O)N[C@]1(C)CCCCCCC=CCCC[C@@](C)(C(=O)N[C@@H](CCCNC(=N)N)C(N)=O)NC(=O)[C@H](C)NC(=O)[C@H](C(C)C)NC(=O)[C@H](CCCCN)NC(=O)[C@H](CC(C)C)NC(=O)[C@H](Cc2ccccc2)NC(=O)[C@H](CC(C)C)NC1=O)[C@@H](C)O)C(C)C` [SP-15, Ac-NlcDVNAibT$r8LFLKVA$R-NH2] (Ac-[Nle]DVN[Aib]T[R8]LFLKVA[S5]R-NH2; staple 7-14), for which the “AUC,all” value was 23300 ng·h/mL; the “AUC,inf” value worked out at 25410 ng·h/mL; the “Cl” value turned out to be 1.97 mL/min/kg; the “Cmax, obs” value was 26524 ng/mL. Moreover, the “MRT” value was found to be 1.92 h, the “T1/2” value came out at 1.49 h and the “Vss” value was found to be 0.226 L/kg.

Assay in the next series: not given
For the compound `CCCC[C@H](NC(C)=O)C(=O)N[C@@H](CC(=O)O)C(=O)N[C@H](C(=O)N[C@@H](CC(N)=O)C(=O)NC(C)(C)C(=O)N[C@H](C(=O)N[C@@H](CC(C)C)C(=O)N[C@@H](CC(C)C)C(=O)N[C@@H](Cc1ccccc1)C(=O)N[C@@]1(C)CCCC=CCCC[C@@](C)(C(=O)N[C@@H](CCC(N)=O)C(N)=O)NC(=O)[C@H](C)NC(=O)[C@H](C(C)C)NC(=O)[C@H](CCCCN)NC1=O)[C@@H](C)O)C(C)C` (single isomer, unassigned) [SP-8 IV Dose], the “AUC,inf” value came to 46700 ng·h/mL, the “AUC,last” value was found to be 46600 ng·h/mL, the “Cl” value came out at 1.05 mL/min/kg and the mean residence time (MRT) was 2 h. Further, the “T1/2” value was 1 h and the “Vss” value worked out at 0.105 L/kg.
Turning to `CCCC[C@H](NC(C)=O)C(=O)N[C@@H](CC(=O)O)C(=O)N[C@H](C(=O)N[C@@H](CC(N)=O)C(=O)NC(C)(C)C(=O)N[C@H](C(=O)N[C@@H](CC(C)C)C(=O)N[C@@H](CC(C)C)C(=O)N[C@@H](Cc1ccccc1)C(=O)N[C@@]1(C)CCCC=CCCC[C@@](C)(C(=O)N[C@@H](CCC(N)=O)C(N)=O)NC(=O)[C@H](C)NC(=O)[C@H](C(C)C)NC(=O)[C@H](CCCCN)NC1=O)[C@@H](C)O)C(C)C` (single isomer, unassigned) [SP-8 Subcutaneous], the “AUC,inf” value came out at 10200 ng·h/mL, the “AUC,last” value turned out to be 9690 ng·h/mL, the “Cl” value is 4.58 mL/min/kg and the “MRT” value came to 13 h. In addition, the “T1/2” value amounted to 10 h and the “Vss” value amounted to 3.629 L/kg.

The term MRT denotes a mean duration of stay, worked out from the concentration-time curve. By Vss is commonly meant a proportionality between amount in the body and measured concentration, not a real space.

The record behind these values is US10022422B2, “Peptidomimetic macrocycles” (priority 2009, dated 2018).
